Two compounds from patent publication US20020192194A1, “Production and use of dopaminergic cells to treat dopaminergic deficiencies” (priority 2000, published 2002) can be followed below.

Assay [1] deals with hNT neurons. The assay is described as follows: TH expression of hNT neurons treated with lithium chloride (TH immunoreactivity counts). The assay is classed as cell-based, human. The following applies: 1.0 mM, 5-day cultures. On the procedure: A small-scale dose range study analyzed whether therapeutic (0.5-1.0 mM) and clinically toxic (2.0-6.0 mM) concentrations of LiCl enhanced TH expression in cells treated for 6 weeks with retinoic acid and then LiCl. The control and lithium-treated cultures (0.5, 1.0 and 3.0 mM) were scored for TH immunoreactivity, which was expressed as the number of TH-positive (TH+) cells/well. For TH immunohistochemistry the cells were rinsed in 0.1 M phosphate buffered saline (PBS), fixed in 4% paraformaldehyde, and then again rinsed in PBS. […] To determine the percentage of cells labeled by a particular antibody in representative experiments, the numbers of labeled and unlabeled cells were assessed in a blind-coded manner using a 20X objective and a photographic frame. […]
To investigate the effect of various doses of LiCl on tyrosine hydroxylase expression in 5 DIV hNT neurons, we determined the number of unlabeled and TH+ neurons in a blind coded manner using a 20X objective and a photographic frame (field=0.3 mm^2). […] The dose responsive tests were analyzed using a one-way analysis of variance (ANOVA) followed by post hoc comparisons using Bonferroni-Dunn analysis.

The test system of assay [2] is hNT neurons. The experiment in a line: Soma size and neurite outgrowth of TH+ hNT cells (image analysis). The following applies: 5 days in culture. The assay is classed as cell-based, human. On the procedure:
The same series of slides immunostained for TH were employed to measure the soma size (μm^2) and neurite outgrowth (μm) of appropriately 50 TH+ cells per representative culture experiment using a computerized image analysis program (Image-Pro Plus, Media Cybernetics, Inc., Silver Springs, Md.) at 20X objective. The results in the morphological assessment study are reported as mean ±SEM and were analyzed using Student's t-test.

For the compound `[Cl-].[K+]` [KCl], the “numbers of TH+ hNT cells vs control” value in assay [1] is reported as “not significantly different”. Moreover, in assay [2], the “neurite outgrowth vs control” value is “did not significantly differ from control values” and the “soma size vs control” value is listed as “not significantly different from control”.

Turning to `[Cl-].[Na+]` [NaCl], in assay [1], the “numbers of TH+ hNT cells vs control” value is recorded as “not significantly different”. In assay [2], the “neurite outgrowth vs control” value is “did not significantly differ from control values” and the “soma size vs control” value is “not significantly different from control”.
